Results published in patent US10683297B2 (Sunshine Lake Pharma Co., Ltd., priority 2017, dated 2020).

How the values were obtained:
[1] = biological target: T1, JAK2 (h) (Homo sapiens, UniProt O60674); experiment: JAK2 (h) kinase assay; type: biochemical; conditions: [γ-33P-ATP] 10 μM or KM values; 40 minutes at room temperature
T1 construct: purchased Millipore UK Ltd (assays performed there as a service)
Protocol: Kinase assays can be performed by measurement of incorporation of γ-^33P ATP into immobilized myelin basic protein (MBP). High binding white 384 well plates (Greiner) are coated with MBP (Sigma # M-1891) by incubation of 60 μL well of 20 μg/mL MBP in Tris-buffered saline (TBS; 50 mM Tris pH 8.0, 138 mM NaCl, 2.7 mM KCl) for 24 h at 4° C. Plates are washed 3× with 100 μL TBS. Kinase reactions are carried out in a total volume of 34 μL in kinase buffer (according to the need to make, for example, 5 mM Hepes pH 7.6, 15 mM NaCl, 0.01% bovine gamma globulin (Sigma #1-5506), 10 mM MgCl2, 1 mM DTT, 0.02% TritonX-100). Compound dilutions are performed in DMSO and added to assay wells to a final DMSO concentration of 1%. Each data point is measured in duplicate, and at least two duplicate assays are performed for each individual compound determination. Enzyme is added to final concentrations of 10 nM or 20 nM, for example. A mixture of unlabeled ATP and γ-^33P ATP is added to start the reaction (2×10^6 cpm of γ-^33P ATP per well (3000 Ci/mmole) and 10 μM unlabeled ATP, typically. The reactions are carried out for 1 hour at room temperature with shaking. Plates are washed 7× with TBS, followed by the addition of 50 μL well scintillation fluid (Wallac). Plates are read using a Wallac Trilux counter. This is only one format of such assays; various other formats are possible, as known to one skilled in the art.
The above assay procedure can be used to determine the IC50 for inhibition and/or the inhibition constant, Ki. […] The IC50 value is estimated by preparing a 10 point curve using a ½ log dilution series (for example, a typical curve may be prepared using the following compound concentrations: 3 μM, 1 μM, 0.3 μM, 0.1 μM, 0.03 μM, 0.01 μM, 0.003 μM, 0.001 μM, 0.0003 μM and 0 μM).
JAK2 (h) is incubated with 8 mM MOPS pH 7.0, 0.2 mM EDTA, 100 μM […], 10 mM MgAcetate and [γ-^33P-ATP] […] The reaction is initiated by the addition of the MgATP mix. After incubation for 40 minutes at room temperature, the reaction is stopped by the addition of 3% phosphoric acid solution. 10 μL of the reaction is then spotted onto a P30 filtermat and washed three times for 5 minutes in 75 mM phosphoric acid and once in methanol prior to drying and scintillation counting.
The kinase assays described herein were performed at Millipore UK Ltd, Dundee Technology Park, Dundee DD2 1SW, UK.

[2] = Pharmacokinetics after intravenous and oral administration in rats; type: in vivo; conditions: for Clearance (CL) after iv dosing / AUC(0-t) / half-life / Vd: dose 1 mg/kg (Ex. 9: 0.6, Ex. 18: 0.5, Ex. 50: 0.96 mg/kg), iv dosing; for AUC(0-t) / half-life / Vd / bioavailability: rat, plasma; for Vd: read-out: Vss; for bioavailability: oral (generally 5 or 10 mg/kg) versus iv dosing, read-out: F (oral bioavailability)
In short: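 Rats dosed i.v. (about 0.5, 0.6, 1 or 2 mg/kg) or p.o. (5 or 10 mg/kg) as solution, suspension or capsule. Plasma sampled over 24 h and quantified by LC/MS/MS in MRM mode with ESI.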

T1 sequence (O60674 whole entry): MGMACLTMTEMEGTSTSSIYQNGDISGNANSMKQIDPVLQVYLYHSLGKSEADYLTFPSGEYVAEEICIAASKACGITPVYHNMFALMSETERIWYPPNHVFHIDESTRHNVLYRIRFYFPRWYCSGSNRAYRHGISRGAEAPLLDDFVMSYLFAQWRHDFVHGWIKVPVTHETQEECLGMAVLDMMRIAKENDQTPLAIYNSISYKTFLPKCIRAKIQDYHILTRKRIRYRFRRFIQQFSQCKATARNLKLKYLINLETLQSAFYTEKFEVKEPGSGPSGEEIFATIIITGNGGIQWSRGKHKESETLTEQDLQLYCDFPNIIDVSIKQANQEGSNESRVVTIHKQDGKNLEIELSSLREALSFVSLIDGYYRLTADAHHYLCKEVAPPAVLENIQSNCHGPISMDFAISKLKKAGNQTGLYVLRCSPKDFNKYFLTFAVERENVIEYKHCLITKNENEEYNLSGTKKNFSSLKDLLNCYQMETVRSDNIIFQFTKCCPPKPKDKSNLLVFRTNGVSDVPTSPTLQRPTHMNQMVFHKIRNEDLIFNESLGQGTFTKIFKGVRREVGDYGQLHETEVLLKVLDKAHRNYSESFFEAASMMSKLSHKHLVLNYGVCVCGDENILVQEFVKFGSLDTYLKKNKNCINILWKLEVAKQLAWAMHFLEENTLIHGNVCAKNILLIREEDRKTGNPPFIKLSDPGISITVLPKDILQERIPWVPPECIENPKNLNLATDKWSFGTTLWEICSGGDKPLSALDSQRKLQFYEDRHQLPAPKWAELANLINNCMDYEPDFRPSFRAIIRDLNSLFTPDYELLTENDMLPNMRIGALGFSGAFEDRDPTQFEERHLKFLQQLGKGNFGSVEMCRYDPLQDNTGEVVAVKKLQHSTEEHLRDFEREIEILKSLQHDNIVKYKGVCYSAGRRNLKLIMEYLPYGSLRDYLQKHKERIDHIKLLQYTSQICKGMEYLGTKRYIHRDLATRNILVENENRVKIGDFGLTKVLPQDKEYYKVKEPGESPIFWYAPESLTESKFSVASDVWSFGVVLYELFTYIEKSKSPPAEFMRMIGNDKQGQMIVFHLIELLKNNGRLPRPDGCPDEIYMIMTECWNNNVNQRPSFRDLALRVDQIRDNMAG

Row | Compound | IC50 [1] [nM] | other results
1 | CC(C)(O)Cc1nc2ccc(Nc3ncc(Cl)c(NC4CCN(c5ccc(C#N)nn5)CC4)n3)cn2n1 [Example 79, 6-(4-((5-chloro-2-((2-(2-hydroxy-2-methylpropyl)-[1,2,4]triazolo[1,5-a]pyridin-6-yl)amino)pyrimidin-4-yl)amino)piperidin-1-yl)pyridazine-3-carbonitrile] | 102 | Clearance (CL) after iv dosing [2]: 272 mL/min/kg; AUC(0-t) [2]: 1020 ng·h/mL; half-life [2]: 45.7 min; Vd [2]: 1.23 L/kg; bioavailability [2]: 42.1%
2 | CC(C)(O)c1cn2ccc(Nc3ncc(Cl)c(NC4CCN(c5ccc(C#N)cn5)CC4)n3)cc2n1 [Example 70, 6-(4-((5-chloro-2-((2-(2-hydroxypropan-2-yl)imidazo[1,2-a]pyridin-7-yl)amino)pyrimidin-4-yl)amino)piperidin-1-yl)nicotinonitrile] | 8 | Clearance (CL) after iv dosing [2]: 19.3 mL/min/kg; AUC(0-t) [2]: 860 ng·h/mL; half-life [2]: 56.4 min; Vd [2]: 1.39 L/kg; bioavailability [2]: 23.5%
3 | CC(C)(O)c1nc2cc(Nc3ncc(Cl)c(NC4CCN(c5ccc(C#N)nn5)CC4)n3)ccn2n1 [Example 55, 6-(4-((5-chloro-2-((2-(2-hydroxypropan-2-yl)-[1,2,4]triazolo[1,5-a]pyridin-7-yl)amino)pyrimidin-4-yl)amino)piperidin-1-yl)pyridazine-3-carbonitrile] | 14 | 
4 | Cc1cnc2cc(Nc3ncc(Cl)c(NC4CCN(c5ccc(C#N)nn5)CC4)n3)ccn12 [Example 12, 6-(4-((5-chloro-2-((3-methylimidazo[1,2-a]pyridin-7-yl)amino)pyrimidin-4-yl)amino)piperidin-1-yl)pyridazine-3-carbonitrile] | 16 | 
5 | CC(O)Cc1nc2cc(Nc3ncc(Cl)c(NC4CCN(c5ccc(C#N)nn5)CC4)n3)ccn2n1 (stereo not drawn) [Example 56, 6-(4-((5-chloro-2-((2-(2-hydroxypropyl)-[1,2,4]triazolo[1,5-a]pyridin-7-yl)amino)pyrimidin-4-yl)amino)piperidin-1-yl)pyridazine-3-carbonitrile] | 15 | 
6 | CC(C)(O)Cc1nnc2cc(Nc3ncc(Cl)c(NC4CCN(c5ccc(C#N)nn5)CC4)n3)ccn12 [Example 75, 6-(4-((5-chloro-2-((3-(2-hydroxy-2-methylpropyl)-[1,2,4]triazolo[4,3-a]pyridin-7-yl)amino)pyrimidin-4-yl)amino)piperidin-1-yl)pyridazine-3-carbonitrile] | 8 | 

Compounds with a lower IC50 [1], results first:

Row | IC50 [1] [nM] | Compound | other results
7 | 4 | N#Cc1ccc(N2CCC(Nc3nc(Nc4ccc5c(c4)nnn5CC4CC4)ncc3Cl)CC2)nc1 [Example 60, 6-(4-((5-chloro-2-((1-(cyclopropylmethyl)-1H-benzo[d][1,2,3]triazol-5-yl)amino)pyrimidin-4-yl)amino)piperidin-1-yl)nicotinonitrile] | 
8 | 4 | CC(C)(O)Cc1nnc2cc(Nc3ncc(Cl)c(NC4CCN(c5ccc(C#N)cn5)CC4)n3)ccn12 [Example 74, 6-(4-((5-chloro-2-((3-(2-hydroxy-2-methylpropyl)-[1,2,4]triazolo[4,3-a]pyridin-7-yl)amino)pyrimidin-4-yl)amino)piperidin-1-yl)nicotinonitrile] | 
9 | 2 | CCC1CN(c2ccc(C#N)nn2)CCC1Nc1nc(Nc2ccn3c(C)cnc3c2)ncc1Cl (stereo not drawn) [Example 3, 6-(4-((5-chloro-2-((3-methylimidazo[1,2-a]pyridin-7-yl)amino)pyrimidin-4-yl)amino)-3-ethylpiperidin-1-yl)pyridazine-3-carbonitrile] | 
10 | 1 | CC(O)Cn1cnc2cc(Nc3ncc(Cl)c(NC4CCN(c5ccc(C#N)cn5)CC4)n3)ccc21 (stereo not drawn) [Example 61, 6-(4-((5-chloro-2-((1-(2-hydroxypropyl)-1H-benzo[d]imidazol-5-yl)amino)pyrimidin-4-yl)amino)piperidin-1-yl)nicotinonitrile] | 
11 | 1 | CC(C)(O)c1nnc2cc(Nc3ncc(Cl)c(NC4CCN(c5ccc(C#N)cn5)CC4)n3)ccn12 [Example 40] | 
